Experimental findings from patent US5801162A, “Dermatan sulfate compositions and antithrombotic compositions containing same” (Seikagaku Kogyo Kabushiki Kaisha (Seikagaku Corporation), priority 1993, dated 1998) are described below.

For data set [1], the system named is activation of plasminogen with single-chain t-PA (sc-tPA). As to conditions: s-2251.
Experimental: (§1) Fifty microliters each of various concentration of DS (BIDS, CCDS) or chondroitin sulfate (control group), 25 μL of 1.6 μM plasminogen and 25 μL of 20 nM of single or two-chain t-PA, and 100 μL of 0.6 mM a synthetic substrate S-2251 (H-D-Val-L-Leu-L-Lys-p-nitroanilide·2HCl) were mixed and the absorbancy at 405 nm was determined every 2 minutes with an automatic microtiter plate reader. The reaction was carried out at 37° C. in a buffer composed of 60 mM TriS-HCl with Tween^RTM 80.
(§2) The initial rate of activation of plasminogen was calculated as follows; the slope of plots of, .LAMBDA.405, an absorbancy at 405 nm at time t to the square of time (Δ.LAMBDA.405 /Δt^2) was divided by 40,000 (Chibber, B. A. K., et al., Biochemistry, 1985, pp. 3429-3434). The stimulation rate was calculated from ratios to DS or chondroitin sulfate free conditions which was made the initial rate 1 (one).
Data set [2] concerns activation of plasminogen with two-chain t-PA (tc-tPA). The conditions noted are these: s-2251.
Experimental: as §1, §2

Turning to chondroitin sulfate, the results for the “stimulation rate of activation of plasminogen (ratio to DS or chondroitin sulfate free conditions)” value in data set [1] and in data set [2] were ≤ 2.5 fold and ≤ 1.5 fold, respectively.
